From US20240150298A1, “ANTIBACTERIAL COMPOUNDS” (Blacksmith Medicines, Inc., priority 2021, published 2024)
In brackets after ≈: the same amount, converted by molar mass.

How the values were obtained:
[1] = molecular target: K. pneumoniae LpxC (Klebsiella pneumoniae subsp. pneumoniae, UniProt A6T4N9); assay: LpxC Binding Assay (Rapid Fire MS assay); assay type: biochemical
[2] = tested on: K. pneumoniae ATCC13883; assay: Bacterial susceptibility testing, MIC by broth microdilution (CLSI); assay type: cell-based; conditions: Klebsiella pneumoniae, ATCC13883, broth microdilution, 35° C., 18-24 h; read-out: MIC K. pneumoniae ATCC13883
Summary of the method: (§1)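 Broth microdilution per CLSI in cation-adjusted Mueller-Hinton broth, inoculum 3×10^5–7×10^5 CFU/mL, 2-fold serial drug dilutions in DMSO. Incubated in ambient air at 35° C for 18-24 h. MIC taken as lowest concentration preventing visible growth (OD600 nm<0.05).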

[3] = tested on: P. aeruginosa 209 PAO1; assay: as above; assay type: cell-based; conditions: Pseudomonas aeruginosa, PAO1, broth microdilution, 35° C., 18-24 h; read-out: MIC P. aeruginosa 209 PAO1
Summary of the method: as §1

[4] = tested on: P. aeruginosa ATCC27835; assay: as above; assay type: cell-based; conditions: Pseudomonas aeruginosa, ATCC27835, broth microdilution, 35° C., 18-24 h; read-out: MIC P. aeruginosa ATCC27835
Summary of the method: as §1

[5] = tested on: E. coli ATCC25922; assay: as above; assay type: cell-based; conditions: Escherichia coli, ATCC25922, broth microdilution, 35° C., 18-24 h; read-out: MIC E. coli ATCC25922
Summary of the method: as §1

[6] = molecular target: E. coli LpxC (Escherichia coli, UniProt P0A725); assay: LpxC Binding Assay (Rapid Fire MS assay); assay type: biochemical
Protocol: (§2) IC50 values against E. coli and P. aeruginosa LpxC are determined using a Rapid Fire MS assay as previously described J. Med. Chem. 2012, 55, 1662-1670.

[7] = molecular target: T1, P. aeruginosa LpxC (Pseudomonas aeruginosa, UniProt P47205); assay: LpxC Binding Assay (Rapid Fire MS assay); assay type: biochemical
T1 sequence (P47205 1-303): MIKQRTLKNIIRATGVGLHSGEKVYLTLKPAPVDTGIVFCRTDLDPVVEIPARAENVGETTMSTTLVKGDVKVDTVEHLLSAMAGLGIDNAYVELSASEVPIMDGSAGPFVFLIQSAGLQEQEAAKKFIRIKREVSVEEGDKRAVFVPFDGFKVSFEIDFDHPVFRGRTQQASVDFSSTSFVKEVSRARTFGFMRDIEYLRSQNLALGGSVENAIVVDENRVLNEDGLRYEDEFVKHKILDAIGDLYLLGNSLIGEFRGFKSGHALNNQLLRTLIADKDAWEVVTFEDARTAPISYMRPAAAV
Protocol: as §2

K. pneumoniae LpxC, sequence (A6T4N9 whole entry): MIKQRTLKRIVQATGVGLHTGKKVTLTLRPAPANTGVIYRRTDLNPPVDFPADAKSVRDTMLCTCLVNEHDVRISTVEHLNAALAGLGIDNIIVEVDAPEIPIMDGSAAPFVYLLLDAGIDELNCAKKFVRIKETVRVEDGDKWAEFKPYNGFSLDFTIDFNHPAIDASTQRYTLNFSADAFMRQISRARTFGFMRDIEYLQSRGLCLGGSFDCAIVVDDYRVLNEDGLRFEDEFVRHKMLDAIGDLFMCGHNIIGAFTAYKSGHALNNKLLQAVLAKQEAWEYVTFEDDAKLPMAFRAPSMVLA
E. coli LpxC, sequence (P0A725 whole entry): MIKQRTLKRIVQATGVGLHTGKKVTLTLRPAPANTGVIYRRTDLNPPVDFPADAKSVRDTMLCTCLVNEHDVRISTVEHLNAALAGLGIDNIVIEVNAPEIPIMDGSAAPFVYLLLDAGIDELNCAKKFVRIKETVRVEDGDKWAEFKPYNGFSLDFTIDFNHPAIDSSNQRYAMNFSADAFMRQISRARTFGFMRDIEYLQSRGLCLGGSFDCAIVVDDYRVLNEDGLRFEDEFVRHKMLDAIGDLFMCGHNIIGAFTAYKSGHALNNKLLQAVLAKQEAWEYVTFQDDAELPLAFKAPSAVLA

C[C@H](O)c1nccn1[C@@H](/C=C(\F)c1ccc(-c2ccc(OCC(N)CO)cc2)cc1)CO (mixture of isomers) [Compound 11]
IC50 [1]: 4 nM
MIC [2]: 16 µg/mL (≈ 36.2 µM)
MIC [3]: 1 µg/mL (≈ 2.26 µM)
MIC [4]: 2 µg/mL (≈ 4.53 µM)
MIC [5]: 4 µg/mL (≈ 9.06 µM)
IC50 [6]: 2.7 nM
IC50 [7]: 31.3 nM

C[C@H](O)c1nccn1[C@@H](/C=C/c1ccc(-c2ccc(OCC(N)CO)cc2)cc1)CCO (mixture of isomers) [Compound 19, (3R,E)-5-(4′-(2-amino-3-hydroxypropoxy)-[1,1′-biphenyl]-4-yl)-3-(2-((S)-1-hydroxyethyl)-1H-imidazol-1-yl)pent-4-en-1-ol]
IC50 [1]: 8 nM
MIC [2]: 64 µg/mL (≈ 146 µM)
MIC [3]: 4 µg/mL (≈ 9.14 µM)
MIC [4]: 4 µg/mL (≈ 9.14 µM)
MIC [5]: 8 µg/mL (≈ 18.3 µM)
IC50 [6]: 5.1 nM
IC50 [7]: 62.3 nM

COC(CN)COc1ccc(-c2ccc(/C=C/[C@@H](CO)n3ccnc3[C@H](C)O)cc2)cc1 (mixture of isomers) [Compound 27, (2S,E)-4-(4′-(3-amino-2-methoxypropoxy)-[1,1′-biphenyl]-4-yl)-2-(2-((S)-1-hydroxyethyl)-1H-imidazol-1-yl)but-3-en-1-ol]
IC50 [1]: 6.2 nM
MIC [2]: 32 µg/mL (≈ 73.1 µM)
MIC [3]: 4 µg/mL (≈ 9.14 µM)
MIC [4]: 4 µg/mL (≈ 9.14 µM)
MIC [5]: 8 µg/mL (≈ 18.3 µM)
IC50 [6]: 2.9 nM
IC50 [7]: 41.2 nM

C[C@H](O)c1nccn1[C@@H](/C=C/c1ccc(-c2ccc(O[C@H]3COC[C@@H]3N)cc2)cc1)CO (racemic) [Compound 34, (S,E)-4-(4′-(((trans)-4-aminotetrahydrofuran-3-yl)oxy)-[1,1′-biphenyl]-4-yl)-2-(2-((S)-1-hydroxyethyl)-1H-imidazol-1-yl)but-3-en-1-ol]
IC50 [1]: 1.9 nM
MIC [2]: 2 µg/mL (≈ 4.59 µM)
MIC [3]: 0.5 µg/mL (≈ 1.15 µM)
MIC [4]: 4 µg/mL (≈ 9.18 µM)
IC50 [6]: 1.1 nM
IC50 [7]: 18.9 nM

C[C@H](O)c1nccn1[C@@H](/C=C/c1ccc(-c2ccc(O[C@H]3COC[C@@H]3O)cc2)cc1)CO (racemic) [Compound 35, (trans)-4-((4′-((S,E)-4-hydroxy-3-(2-((S)-1-hydroxyethyl)-1H-imidazol-1-yl)but-1-en-1-yl)-[1,1′-biphenyl]-4-yl)oxy)tetrahydrofuran-3-ol]
IC50 [1]: 0.9 nM
MIC [2]: 2 µg/mL (≈ 4.58 µM)
MIC [3]: 1 µg/mL (≈ 2.29 µM)
MIC [4]: 4 µg/mL (≈ 9.16 µM)
IC50 [6]: < 0.5 nM
IC50 [7]: 8.2 nM

CCOCC(O)COc1ccc(-c2ccc(/C=C/[C@@H](CO)n3ccnc3[C@H](C)O)cc2)cc1 (mixture of isomers) [Compound 36, (2S,E)-4-(4′-(3-ethoxy-2-hydroxypropoxy)-[1,1′-biphenyl]-4-yl)-2-(2-((S)-1-hydroxyethyl)-1H-imidazol-1-yl)but-3-en-1-ol]
IC50 [1]: 0.8 nM
MIC [2]: 1 µg/mL (≈ 2.21 µM)
MIC [3]: 2 µg/mL (≈ 4.42 µM)
MIC [4]: 4 µg/mL (≈ 8.84 µM)
IC50 [6]: < 0.5 nM
IC50 [7]: 21.3 nM

C[C@H](O)c1nccn1[C@@H](/C=C(\F)c1ccc(-c2ccc(OCC(O)CN)cc2)cc1)CO (single isomer, unassigned) [Compound 30, (S,Z)-4-(4′-((R)-3-amino-2-hydroxypropoxy)-[1,1′-biphenyl]-4-yl)-4-fluoro-2-(2-((S)-1-hydroxyethyl)-1H-imidazol-1-yl)but-3-en-1-ol; or (S,Z)-4-(4′-((S)-3-amino-2-hydroxypropoxy)-[1,1′-biphenyl]-4-yl)-4-fluoro-2-(2-((S)-1-hydroxyethyl)-1H-imidazol-1-yl)but-3-en-1-ol]
IC50 [1]: 7.6 nM
MIC [2]: 32 µg/mL (≈ 72.5 µM)
MIC [3]: 8 µg/mL (≈ 18.1 µM)
MIC [4]: 8 µg/mL (≈ 18.1 µM)
MIC [5]: 16 µg/mL (≈ 36.2 µM)
IC50 [6]: 5 nM
IC50 [7]: 79.5 nM

C[C@H](O)c1nccn1[C@@H](/C=C/c1ccc(-c2ccc(OC3CCN(CCO)CC3)cc2)cc1)CO [Compound 17, (S,E)-2-(2-((S)-1-hydroxyethyl)-1H-imidazol-1-yl)-4-(4′-((1-(2-hydroxyethyl)piperidin-4-yl)oxy)-[1,1′-biphenyl]-4-yl)but-3-en-1-ol]
IC50 [1]: 6.3 nM
MIC [2]: 16 µg/mL (≈ 33.5 µM)
MIC [3]: 4 µg/mL (≈ 8.38 µM)
MIC [4]: 4 µg/mL (≈ 8.38 µM)
MIC [5]: 4 µg/mL (≈ 8.38 µM)
IC50 [6]: 4.2 nM
IC50 [7]: 66.4 nM

C[C@H](O)c1nccn1[C@@H](/C=C/c1ccc(-c2ccc(OC3CCN(CCO)CC3)cc2)cc1)CCO [Compound 18, (R,E)-3-(2-((S)-1-hydroxyethyl)-1H-imidazol-1-yl)-5-(4′-((1-(2-hydroxyethyl)piperidin-4-yl)oxy)-[1,1′-biphenyl]-4-yl)pent-4-en-1-ol]
IC50 [1]: 5.4 nM
MIC [2]: 16 µg/mL (≈ 32.5 µM)
MIC [3]: 4 µg/mL (≈ 8.14 µM)
MIC [4]: 4 µg/mL (≈ 8.14 µM)
MIC [5]: 8 µg/mL (≈ 16.3 µM)
IC50 [6]: 3.6 nM
IC50 [7]: 50.1 nM

C[C@H](O)c1nccn1[C@@H](/C=C/c1ccc(-c2ccc(OC[C@@H](O)CO)cc2)cc1)CO [Compound 24, (S)-3-((4′-((S,E)-4-hydroxy-3-(2-((S)-1-hydroxyethyl)-1H-imidazol-1-yl)but-1-en-1-yl)-[1,1′-biphenyl]-4-yl)oxy)propane-1,2-diol]
IC50 [1]: 1.1 nM
MIC [2]: 8 µg/mL (≈ 18.8 µM)
MIC [3]: 2 µg/mL (≈ 4.71 µM)
MIC [4]: 2 µg/mL (≈ 4.71 µM)
MIC [5]: 2 µg/mL (≈ 4.71 µM)
IC50 [6]: 0.5 nM
IC50 [7]: 17.5 nM

C[C@H](O)c1nccn1[C@@H](/C=C/c1ccc(-c2ccc(OC[C@@H](O)CN(C)C)cc2)cc1)CO [Compound 26, (S,E)-4-(4′-((S)-3-(dimethylamino)-2-hydroxypropoxy)-[1,1′-biphenyl]-4-yl)-2-(2-((S)-1-hydroxyethyl)-1H-imidazol-1-yl)but-3-en-1-ol]
IC50 [1]: 1.4 nM
MIC [2]: 2 µg/mL (≈ 4.43 µM)
MIC [3]: 4 µg/mL (≈ 8.86 µM)
MIC [4]: 8 µg/mL (≈ 17.7 µM)
IC50 [6]: 0.6 nM
IC50 [7]: 17.4 nM

C[C@H](O)c1nccn1[C@@H](/C=C/c1ccc(-c2ccc(OCCN(CCO)CCO)cc2)cc1)CO [Compound 28, 2,2′-((2-((4′—((S,E)-4-hydroxy-3-(2-((S)-1-hydroxyethyl)-1H-imidazol-1-yl)but-1-en-1-yl)-[1,1′-biphenyl]-4-yl)oxy)ethyl)azanediyl)bis(ethan-1-ol)]
IC50 [1]: 4.3 nM
MIC [2]: 16 µg/mL (≈ 33.2 µM)
MIC [3]: 4 µg/mL (≈ 8.31 µM)
MIC [4]: 4 µg/mL (≈ 8.31 µM)
MIC [5]: 4 µg/mL (≈ 8.31 µM)
IC50 [6]: 2.6 nM
IC50 [7]: 36.9 nM

C[C@H](O)c1nccn1[C@@H](/C=C/c1ccc(-c2ccc(OC[C@H](O)CN)cc2)cc1)CO [Compound 29, (S,E)-4-(4′-((R)-3-amino-2-hydroxypropoxy)-[1,1′-biphenyl]-4-yl)-2-(2-((S)-1-hydroxyethyl)-1H-imidazol-1-yl)but-3-en-1-ol]
IC50 [1]: 9.1 nM
MIC [2]: 64 µg/mL (≈ 151 µM)
MIC [3]: 8 µg/mL (≈ 18.9 µM)
MIC [4]: 4 µg/mL (≈ 9.44 µM)
MIC [5]: 32 µg/mL (≈ 75.6 µM)
IC50 [6]: 5.9 nM
IC50 [7]: 120 nM

C[C@H](O)c1nccn1[C@@H](/C=C/c1ccc(-c2ccc(OCC(CO)CO)cc2)cc1)CO [Compound 33, 2-(((4′-((S,E)-4-hydroxy-3-(2-((S)-1-hydroxyethyl)-1H-imidazol-1-yl)but-1-en-1-yl)-[1,1′-biphenyl]-4-yl)oxy)methyl)propane-1,3-diol]
IC50 [1]: 1.6 nM
MIC [2]: 8 µg/mL (≈ 18.2 µM)
MIC [3]: 2 µg/mL (≈ 4.56 µM)
MIC [4]: 4 µg/mL (≈ 9.12 µM)
IC50 [6]: 1 nM
IC50 [7]: 11.9 nM

C[C@H](O)c1nccn1[C@@H](/C=C/c1ccc(-c2ccc(C3CC(NCCC#N)C3)cc2)cc1)CO (stereo partly drawn) [Compound 37, 3-((3-(4′-((S,E)-4-hydroxy-3-(2-((S)-1-hydroxyethyl)-1H-imidazol-1-yl)but-1-en-1-yl)-[1,1′-biphenyl]-4-yl)cyclobutyl)amino)propanenitrile]
IC50 [1]: 0.7 nM
MIC [2]: 0.5 µg/mL (≈ 1.1 µM)
MIC [3]: 2 µg/mL (≈ 4.38 µM)
MIC [4]: 4 µg/mL (≈ 8.76 µM)
IC50 [6]: < 0.5 nM
IC50 [7]: 15.2 nM

C[C@H](O)c1nccn1[C@@H](/C=C/c1ccc(-c2ccc(C3CC(N4CC(O)C4)C3)cc2)cc1)CO (stereo partly drawn) [Compound 38, 1-(3-(4′-((S,E)-4-hydroxy-3-(2-((S)-1-hydroxyethyl)-1H-imidazol-1-yl)but-1-en-1-yl)-[1,1′-biphenyl]-4-yl)cyclobutyl)azetidin-3-ol]
IC50 [1]: 1.6 nM
MIC [2]: 2 µg/mL (≈ 4.35 µM)
MIC [3]: 2 µg/mL (≈ 4.35 µM)
MIC [4]: 2 µg/mL (≈ 4.35 µM)
IC50 [6]: 0.9 nM
IC50 [7]: 27.5 nM

C[C@H](O)c1nccn1[C@@H](/C=C/c1ccc(-c2ccc(C3CC(O)C3)cc2)cc1)CO (stereo partly drawn) [Compound 39, 3-(4′-((S,E)-4-hydroxy-3-(2-((S)-1-hydroxyethyl)-1H-imidazol-1-yl)but-1-en-1-yl)-[1,1′-biphenyl]-4-yl)cyclobutan-1-ol]
IC50 [1]: 0.6 nM
MIC [2]: 0.5 µg/mL (≈ 1.24 µM)
MIC [3]: 1 µg/mL (≈ 2.47 µM)
MIC [4]: 4 µg/mL (≈ 9.89 µM)
IC50 [6]: < 0.5 nM
IC50 [7]: 12.6 nM
